Paper PMC10165273, “Itch receptor MRGPRX4 interacts with the receptor activity–modifying proteins” (The Journal of Biological Chemistry, 2023)
Values joined by “and” are separate entries in the source; they are usually repeats but may differ in a detail not shown here. Equal entries are not always repeated.

Assays:
[1] = system: mock-transfected HEK293T cells; assay: IP1 accumulation, mock-transfected cells; type: cell-based, human; design: IP1 Basal / IP1 span / IP1 Emax / IP1 accumulation, dose-response (Figure 1a) / IP1 accumulation with YM (Figure 1c) / IP1 accumulation: unit not given here; settings: pcDNA (mock), individual replicates
Protocol: (§1) HEK293T cells were transfected with 1 pg/cell of MRGPRX4 DNA, and the amount of DNA was kept constant at 2 pg/cell with pcDNA3.1(+) empty vector, unless otherwise specified. Twenty four hours after transfection, IP1 assay was performed as previously described ([51]). When applicable, cells were treated with 1 μM YM254890 (YM) or different concentrations of U73122 for 1 h prior to addition of agonist or buffer. After incubation for 2 h, HTRF reagents and IP1 calibration standards were added and incubated for 2 h in the dark at room temperature. Time-resolved fluorescence signals were read on the BioTek Synergy NEO-TRF Hybrid multi-mode reader (BioTek Instruments). All data were carried out in three independent experiments with three technical replicate each.
Validation of CALCRL constructs was assayed by cotransfecting HEK293T cells with different tagged versions of CALCRL alone or with each RAMP and with the promiscuous Gqs5 Gq chimera protein, at a respective DNA ratio of 1:1:0.5. Gqs5 is an engineered Gq protein containing the last five amino acid residues of Gs, which allows Gs-coupled GPCRs to signal through Gq downstream signaling pathways ([55]). The homogenous transfection method described above was used for all DNA mixes. CALCRL:RAMP2:Gqs5-transfected cells served as positive control for RAMP functionality.
(§2) Data reduction, standard calibration, and transformation of HTRF data were performed as previously described ([51]). Normalized IP1 values were calculated relative to the unstimulated mock-transfected cells (set to 0%) and fully stimulated MRGPRX4 (alone if applicable) (set to 100%).

MRGPRX4 + RAMP3 [2] = biological target: T1, MRGPRX4 + RAMP3 (Homo sapiens, UniProt Q96LA9); assay: IP1 accumulation, MRGPRX4 coexpressed with RAMP3; type: cell-based; design: key: % IP1; unstimulated mock = 0%, fully stimulated MRGPRX4 = 100%; settings: Figure 4c-f; agonist 100µM; X4:ramp3 1:2; MRGPRX4 = 100
T1 construct: expressed in transfected cells; host or cells: HEK293T
T1 sequence (Q96LA9 whole entry): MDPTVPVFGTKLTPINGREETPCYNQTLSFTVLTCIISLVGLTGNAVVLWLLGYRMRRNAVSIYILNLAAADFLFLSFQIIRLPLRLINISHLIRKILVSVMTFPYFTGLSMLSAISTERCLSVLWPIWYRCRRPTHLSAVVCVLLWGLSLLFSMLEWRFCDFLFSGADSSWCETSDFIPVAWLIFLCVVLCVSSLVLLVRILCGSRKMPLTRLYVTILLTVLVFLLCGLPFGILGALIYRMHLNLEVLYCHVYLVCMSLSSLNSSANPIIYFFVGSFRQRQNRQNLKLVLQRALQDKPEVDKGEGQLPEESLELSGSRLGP

MRGPRX4 = biological target: T2, MRGPRX4 (Homo sapiens, UniProt Q96LA9); assay: IP1 accumulation HTRF assay, MRGPRX4; type: cell-based; design: key to IP1 Basal / IP1 accumulation with YM (Figure 1c) / response to agonist, MRGPRX4 / IP1 accumulation: % IP1: unstimulated mock-transfected = 0%, fully stimulated MRGPRX4 = 100%
T2 construct: expressed in transfected cells; host or cells: HEK293T
T2 sequence (Q96LA9 whole entry): as above
Protocol: as §1
For characterization of the Tet-On Nluc-HT7-MRGPRX4-GFP10-1D4 construct, HEK293T cells were transfected as previously described with some modifications. Dox dose-response of NLuc-HT7-MRGPRX4-GFP10-1D4 DNA titration was assayed by transfecting HEK293T cells with either 1 or 2 pg/cell of NLuc-HT7-MRGPRX4-GFP10-1D4 construct. Receptor expression was induced 4 h after transfection with addition of different concentrations of dox for 20 h. For the RAMP DNA titration assay, cells were cotransfected with a constant amount of 1 pg/cell of NLuc-HT7-MRGPRX4-GFP10-1D4 DNA and 1, 0.75, 0.5, or 0 pg/cell of each HA-RAMP-OLLAS with the homogenous transfection method. Four hours after transfection, receptor expression was induced with addition of 1000 ng/ml dox. Twenty hours after induction, IP1 assay was performed.
as §2

MRGPRX4 + RAMP1 = biological target: T3, MRGPRX4 + RAMP1 (Homo sapiens, UniProt Q96LA9); assay: IP1 accumulation, MRGPRX4 coexpressed with RAMP1; type: cell-based; design: key to IP1 Basal / response to agonist, X4:ramp1.I:1 / response to agonist, X4:ramp1.I:2 / response to agonist, X4:ramp1.I:0.25 / response to agonist, X4:ramp1.I:0.5: % IP1; unstimulated mock = 0%, fully stimulated MRGPRX4 = 100%; settings: Figure 4c-f, agonist 100µM, MRGPRX4 = 100
T3 construct: expressed in transfected cells; host or cells: HEK293T
T3 sequence (Q96LA9 whole entry): as above
Protocol: as §1
For a homogenous transfection of MRGPRX4, a master mix of MRGPRX4 DNA was made prior to addition of the RAMP DNA. […]
as §2

MRGPRX4 + RAMP2 = biological target: T4, MRGPRX4 + RAMP2 (Homo sapiens, UniProt Q96LA9); assay: IP1 accumulation, MRGPRX4 coexpressed with RAMP2; type: cell-based; design: key to response to agonist, X4:ramp2.I:2: % IP1: mock-transfected unstimulated = 0%, fully stimulated MRGPRX4 = 100%; key to IP1 Basal / response to agonist, X4:ramp2.I:0.25 / response to agonist, X4:ramp2.I:0.5 / response to agonist, X4:ramp2.I:1: % IP1; unstimulated mock = 0%, fully stimulated MRGPRX4 = 100%; settings: Figure 4c-f, agonist 100µM, MRGPRX4 = 100
T4 construct: expressed in transfected cells; host or cells: HEK293T
T4 sequence (Q96LA9 whole entry): as above
Protocol: as §1
(§3) For RAMP DNA titration assay, HEK293T cells were cotransfected with a constant amount of 1 pg/cell of FLAG-MRGPRX4-GFP10-1D4 to which a serial dilution of 1, 0.75, 0.5, 0.25, or 0 pg/cell of each HA-RAMP-OLLAS was added. For a homogenous transfection of MRGPRX4, a master mix of MRGPRX4 DNA was made prior to addition of the RAMP DNA. […]
as §2

MRGPRX4 + RAMP3 [3] = biological target: T1, MRGPRX4 + RAMP3; assay: IP1 accumulation, MRGPRX4 coexpressed with RAMP3; type: cell-based; design: key to IP1 Basal / response to agonist, X4:ramp3.I:0.25 / response to agonist, X4:ramp3.I:0.5 / response to agonist, X4:ramp3.I:1: % IP1; unstimulated mock = 0%, fully stimulated MRGPRX4 = 100%; settings: Figure 4c-f, agonist 100µM, MRGPRX4 = 100
Protocol: as §1, §3, §2

In the case of C[C@H](CCC(=O)O)[C@H]1CC[C@H]2[C@@H]3[C@@H](O)C[C@@H]4C[C@H](O)CC[C@]4(C)[C@H]3CC[C@]12C [UDCA, ursodeoxycholic acid], the “IP1 accumulation, dose-response (Figure 1a)” value (“IP1 accumulation” for short) ([1]; log [agonist] (M) -4) is reported as 0.4812 and 0.4346 and 0.8349 and -0.1011 and 0.2178 and -0.3214 and 0.5013 and -0.2736 and -1.513 and -0.6571 and 0.03201 and -0.9921, the “IP1 accumulation” value ([1]; log [agonist] (M) -4.95424) is reported as 0.8578 and 0.7057 and 0.8792 and 0.1679 and 0.2632 and -0.1306 and 0.2729 and -0.3135 and 0.01077 and -0.3984 and 1.094 and -0.3997 and the “IP1 accumulation” value ([1]; log [agonist] (M) -5.90849) is reported as 0.6444 and 0.5533 and 0.8424 and 0.3166 and 0.4567 and -0.2351 and 0.4796 and -0.05346 and 0.7094 and 0.5317 and 1.212 and 0.8514. For the same compound, the “IP1 accumulation” value ([1]; log [agonist] (M) -6.86273) was 1.003 and 1.057 and 1.14 and 0.6057 and 0.714 and 0.2582 and 0.7883 and 0.3494, the “response to agonist, X4:ramp3.I:2” value (MRGPRX4 + RAMP3 [2]) was 54.7688 and 68.6572 and the activation at 33.333 µM (MRGPRX4; 2 h, log [agonist] (M) -4.47712, MRGX4-transfected, individual replicates, read-out: IP1 accumulation, dose-response (Figure 1a)) was 16.7%. For the same compound, the activation at 11.111 µM (MRGPRX4; 2 h, log [agonist] (M) -4.95424, MRGX4-transfected, individual replicates, read-out: IP1 accumulation, dose-response (Figure 1a)) was 14.8%, the activation at 1.2346 µM (MRGPRX4; 2 h, log [agonist] (M) -5.90849, MRGX4-transfected, individual replicates, read-out: IP1 accumulation, dose-response (Figure 1a)) was 12.9% and the activation at 0.4115 µM (MRGPRX4; 2 h, log [agonist] (M) -6.38561, MRGX4-transfected, individual replicates, read-out: IP1 accumulation, dose-response (Figure 1a)) was 12.7%. For the same compound, the activation at 0.13717 µM (MRGPRX4; 2 h, log [agonist] (M) -6.86273, MRGX4-transfected, individual replicates, read-out: IP1 accumulation, dose-response (Figure 1a)) was 12.1%, the “response to agonist, MRGPRX4” value (MRGPRX4; Figure 4c-f, agonist 100µM, MRGPRX4 alone (reference = 100)) was 100 and the “IP1 Basal” value (MRGPRX4; MRGPRX4 (Fig. 1A), HEK293T, normalized to 100 μM nateglinide) was 13.66. The “response to agonist, X4:ramp1.I:0.25” value (MRGPRX4 + RAMP1; X4:ramp1 1:0.25) was 100.75 and 106.142, the “response to agonist, X4:ramp1.I:0.5” value (MRGPRX4 + RAMP1; X4:ramp1 1:0.5) was 100.618 and 106.983 and the “response to agonist, X4:ramp1.I:1” value (MRGPRX4 + RAMP1; X4:ramp1 1:1) was 95.1306 and 98.4249. The “response to agonist, X4:ramp1.I:2” value (MRGPRX4 + RAMP1; X4:ramp1 1:2) was 83.6233 and 101.678, the “response to agonist, X4:ramp2.I:0.25” value (MRGPRX4 + RAMP2; X4:ramp2 1:0.25) was 79.4398 and 88.1338 and the “response to agonist, X4:ramp2.I:0.5” value (MRGPRX4 + RAMP2; X4:ramp2 1:0.5) was 67.697 and 77.1393. The “response to agonist, X4:ramp2.I:1” value (MRGPRX4 + RAMP2; X4:ramp2 1:1) was 40.116 and 40.4903, the “response to agonist, X4:ramp2.I:2” value (MRGPRX4 + RAMP2; X4:ramp2 1:2) was 13.5988 and 14.044 and the “response to agonist, X4:ramp3.I:0.25” value (MRGPRX4 + RAMP3 [3]; X4:ramp3 1:0.25) was 86.9905 and 87.7685. The “response to agonist, X4:ramp3.I:0.5” value (MRGPRX4 + RAMP3 [3]; X4:ramp3 1:0.5) was 74.5043 and 88.6761 and the “response to agonist, X4:ramp3.I:1” value (MRGPRX4 + RAMP3 [3]; X4:ramp3 1:1) was 78.3418 and 68.7873.
